# Data as given in patent EP0568946A1, “Compound TAN-1607A, its derivatives, their production, and use thereof” (TAKEDA CHEMICAL INDUSTRIES, LTD., priority 1992, dated 1993).
# Test system: mice
# Assay: Acute toxicity test using mice
# Type: in vivo
# Conditions: 100 mg/kg administered intraperitoneally
# Description: Further, no mice died in an acute toxicity test using mice in which the compound TAN-1607A (100 mg/kg) was administered intraperitoneally.
smiles,measurement,value
CC(=O)OC(CCCC12OC(C(=O)O)C(O)(C(=O)O)C(C(=O)O)(O1)C(OC(=O)CCCCCCCC/C=C/c1ccccc1)C2O)C(C)C/C=C/c1ccccc1 (stereo not shown) [TAN-1607A],acute toxicity (mortality),no mice died
